What was measured:
in vivo [1] = details: both, ICR, mouse, in vivo, iv
Experimental: (§1) SPF-grade ICR mice, each weighing 18-22 g, half male and half female, were used. A well-established mouse anesthesia model was used to study the general anesthesia effect of the compound of the present invention. The compounds were formulated with solvents of 10% DMSO, 15% solutol (HS15) and 75% saline to the desired concentration, for further use. After adapting to the experimental environment, the experimental animals were fasted with water available for 12 h, and were administered via intravenous injection at an administration volume of 10 mL/kg. Then the anesthesia induction time (the time period from drug administration to disappearance of the righting reflex) and the anesthesia maintenance time (the time period from disappearance of the righting reflex to recovery of the righting reflex) were recorded. Indicators including the median effective dose (ED50), median lethal dose (LD50), therapeutic index (TI, i.e. LD50/ED50), anesthesia induction time, anesthesia maintenance time and maximum tolerated dose were used to evaluate the effect and safety of anesthesia.

ICR mice = test: animal or person; details: for ED50: Mus musculus
Experimental: as §1

in vivo [2] = type: in vivo, rats; details: both sexes, Sprague-Dawley, rat, in vivo, iv
Experimental: (§2) SD rats, half male and half female, were fasted with water available for 12 h, and were administered via intravenous injection at an administration volume of 10 mL/kg. Then the anesthesia induction time (the time period from drug administration to disappearance of the righting reflex), the anesthesia maintenance time (the time period from disappearance of the righting reflex to recovery of the righting reflex and revival) and the anesthesia recovery time (the time period from revival to complete recovery) were recorded. Indicators including the median effective dose (ED50), median lethal dose (LD50), therapeutic index (TI, i.e. LD50/ED50), anesthesia induction time, anesthesia maintenance time and maximum tolerated dose were used to evaluate the effect and safety of anesthesia.

SD rats = test: animal or person; type: in vivo
Experimental: as §2

[3] = Pharmacokinetic study in rats; type: in vivo, SD rats; details: male, Sprague-Dawley, rat, plasma, iv, 1 mg/kg
Experimental: Twelve male SD rats (200-300 g) were randomized into 2 groups (n=6): control group 3 and compound 20. The rats were administered via intravenous injection at 1 mg/kg (control group 3) and 1 mg/kg (compound 20), respectively, with an administration volume of 5 mL/kg and a vehicle of 5% DMSO+10% solutol (HS15)+85% Saline. Blood samples were taken before administration and at 2 min, 4 min, 8 min, 12 min, 15 min, 30 min, 1 h, 1.5 h and 2 h after administration. Plasma samples were taken by centrifugation, and stored in a −80° C. refrigerator until LC-MS analysis to be tested. After sample processing, quantitative analysis of substances in plasma was conducted using LCMS/MS to detect the concentration of prototype compounds in the plasma. The plasma concentration/time curve obtained in this way was used to calculate pharmacokinetic parameters by a validated pharmacokinetic computer program.

[4] = Pharmacokinetic study in Beagle dogs; type: in vivo; details: male, dog, plasma, iv, 0.5 mg/kg
Experimental: Six male Beagle dogs (6-10 kg) were randomized into 2 groups (n=3): control group 3 and compound 20. The […] were administered via intravenous injection at 0.5 mg/kg (control group 3) and 0.5 mg/kg (compound 20), respectively, with an administration volume of 1 mL/kg and a vehicle of 5% DMSO+10% solutol (HS15)+85% Saline. Blood samples were taken before administration and at 2 min, 5 min, 10 min, 20 min, 30 min, 1 h, 1.5 h, 2 h and 3 h after administration. Plasma samples were taken by centrifugation, and stored in a −80° C. refrigerator until LC-MS analysis to be tested. After sample processing, quantitative analysis of substances in plasma was conducted using LCMS/MS to detect the concentration of prototype compounds in the plasma. The plasma concentration/time curve obtained in this way was used to calculate pharmacokinetic parameters by a validated pharmacokinetic computer program.

Beagle dogs = test: Hemodynamic effect study in conscious Beagle dogs (telemetry); type: in vivo; details: iv, control group 3 2 mg/kg, compound 20 0.5 and 1 mg/kg, within 1 h, recovery after 1 h
Experimental: The experiment used an emka PACK 4G telemetry system to detect the effects of intravenous injection of control group 3 and compound 20 on electrocardiogram, blood pressure and body temperature in conscious Beagle dogs, providing reference information for evaluating the safety of clinical use.
Four Beagle dogs were subjected to crossover administration, with a vehicle control (5% DMSO+10% solutol+85% Saline), control group 3 (2 mg/kg), compound 20 (0.5 mg/kg) and compound 20 (1 mg/kg) for each intravenous injection, with an administration volume of 2 mL/kg. Observations were respectively conducted before administration and within 1 h after administration on the day of administration. Anal temperature was measured before administration and at 30 min, 1 h, 2 h and 3 h after administration during each administration period; and electrocardiogram parameters were continuously collected from 0.5 h before administration to 3 h after administration during each administration period. Blood pressure was collected at 15 min after collection was started, and was collected at 2 min, 5 min, 10 min, 20 min, 30 min, 1 h, 2 h and 3 h after administration. The electrocardiogram, blood pressure data, body temperature, and clinical observation results on the day of administration at various time points including before administration (at 30 min after collection was started) and at 2 min, 5 min, 10 min, 20 min, 30 min, 1 h, 2 h and 3 h after administration were analysed and evaluated.

[5] = mice, iv, administration to disappearance of righting reflex
[6] = mice, iv, disappearance to recovery of righting reflex

Compound	LD50 (in vivo [1]) [mg/kg]	MTD (in vivo [1]) [mg/kg]	ED50 (ICR mice; iv) [mg/kg]	TI (ICR mice; mice, LD50/ED50)	Anesthesia induction time (ICR mice; [5]) [s]	Anesthesia maintenance time (ICR mice; [6]) [s]	also measured
CC(C)c1cccc(C(C)S(C)(=O)=O)c1O (stereo not shown) [Compound 1, 2-isopropyl-6-(1-(methylsulfonyl)ethyl)phenol]	35	24	8	4.4	60	255	
CC(C)c1cccc(C(C)[S+](C)[O-])c1O (stereo not shown) [Compound 2, 2-isopropyl-6-(1-(methylsulfinyl)ethyl)phenol]	17	10	6	3.8	2	690	
CC(c1cccc(C(C)S(C)(=O)=O)c1O)C1CC1 (stereo not shown) [Compound 4, 2-(1-cyclopropylethyl)-6-(1-(methylsulfonyl)ethyl)phenol]	10	4	2	5.0	2	356	
CC(c1cccc(C(C)[S+](C)[O-])c1O)C1CC1 (stereo not shown) [Compound 5, 2-(1-cyclopropylethyl)-6-(1-(methylsulfinyl)ethyl)phenol]	10	8	6	1.7	2	1638	
CC(c1cccc(C(C)S(=O)(=O)C(C)C)c1O)C1CC1 (stereo not shown) [Compound 6, 2-(1-cyclopropylethyl)-6-(1-(isopropylsulfonyl)ethyl)phenol]	34	22	11	3.1	5	579	
CCS(=O)(=O)C(C)c1cccc(C(C)C2CC2)c1O (stereo not shown) [Compound 11, 2-(1-cyclopropylethyl)-6-(1-(ethylsulfonyl)ethyl)phenol]	11	6	2	5.5	22	560	
CCC(c1cccc(C(C)C2CC2)c1O)S(C)(=O)=O (stereo not shown) [Compound 14, 2-(1-cyclopropylethyl)-6-(1-(methylsulfonyl)propyl)phenol]	12	9	4	3.0	2	499	
CCS(=O)(=O)[C@H](C)c1cccc([C@@H](C)C2CC2)c1O [Compound 21, 2-((S)-1-cyclopropylethyl)-6-((R)-1-(ethylsulfonyl)ethyl)phenol]	6	3.5	2.5	2.4	2	354	
CCS(=O)(=O)[C@@H](C)c1cccc([C@@H](C)C2CC2)c1O [Compound 22, 2-((S)-1-cyclopropylethyl)-6-((S)-1-(ethylsulfonyl)ethyl)phenol]	18	9	5	3.6	2	384	
CCS(=O)(=O)[C@H](C)c1cccc([C@H](C)C2CC2)c1O [Compound 23, 2-((R)-1-cyclopropylethyl)-6-((R)-1-(ethylsulfonyl)ethyl)phenol]	14	10	7	2	2	294	
CC(C)c1cccc(C(C)C)c1O [Control group 1, propofol, reference compound]	31		12				Anesthesia induction time (ICR mice; mouse, in vivo): 19 s; Anesthesia maintenance time (ICR mice; mouse, in vivo): 586 s; MTD (ICR mice; mouse, in vivo, iv): 20 mg/kg
CC(C)c1cccc(C(C)C2CC2)c1O (stereo not shown) [Control group 2, ciprofol, reference compound]	17	9	3.5				Anesthesia induction time (ICR mice; mouse, in vivo): 2 s; Anesthesia maintenance time (ICR mice; mouse, in vivo): 534 s; TI (ICR mice; mouse, in vivo): 4.9
CC(C)c1cccc([C@H](C)C2CC2)c1O [Control group 3, ciprofol, reference compound]	6	3.1	1.2				Anesthesia induction time (ICR mice; mouse, in vivo): 2 s; Anesthesia maintenance time (ICR mice; mouse, in vivo): 521 s; TI (ICR mice; mouse, in vivo): 5; LD50 (in vivo [2]): 5.6 mg/kg; MTD (in vivo [2]): 4 mg/kg; ED50 (SD rats; Rattus norvegicus, iv): 1.1 mg/kg; Anesthesia induction time (SD rats; rat, in vivo): 34 s; Anesthesia maintenance time (SD rats; rat, in vivo): 409 s; TI (SD rats; rat, in vivo): 5.1; AUC(0-t) [3]: 0.142 µg·h/mL; half-life [3]: 50.6 min; AUC(0-t) [4]: 0.145 µg·h/mL; half-life [4]: 37.8 min; change in heart rate after administration (Beagle dogs): slow down in heart rate
